From BigSolDB 2.1

CC(C)(C)OC(=O)N[C@@H](CC(N)=O)C(=O)O
solubility (mole fraction)
Details | 283.15 K | 288.15 K | 293.15 K | 298.15 K | 303.15 K | 308.15 K | 313.15 K | 318.15 K | 323.15 K
in 2-butanone | 0.000534 | 0.000543 | 0.000641 | 0.000673 | 0.000804 | 0.000879 | 0.00109 | 0.00131 | 0.00171
in acetone | 0.000897 | 0.000927 | 0.0012 | 0.00139 | 0.00166 | 0.00201 | 0.00222 | 0.00253 | 0.00308
in acetonitrile | 0.000136 | 0.000177 | 0.000195 | 0.000257 | 0.000313 | 0.000398 | 0.000499 | 0.000665 | 0.000856
in ethanol | 0.00213 | 0.00253 | 0.0031 | 0.00375 | 0.00454 | 0.00533 | 0.00632 | 0.00776 | 0.0091
in isobutanol | 0.000686 | 0.000865 | 0.000918 | 0.00106 | 0.0014 | 0.0018 | 0.00236 | 0.00324 | 0.00421
in isopropanol | 0.00136 | 0.00169 | 0.00204 | 0.00252 | 0.00317 | 0.00372 | 0.00433 | 0.00528 | 0.00658
in methanol | 0.00641 | 0.0073 | 0.00842 | 0.00982 | 0.0111 | 0.013 | 0.0153 | 0.0172 | 0.022
in n-butanol | 0.000791 | 0.000839 | 0.00113 | 0.00131 | 0.00172 | 0.00189 | 0.00241 | 0.003 | 0.00377
in n-pentanol | 0.000561 | 0.000787 | 0.00102 | 0.00154 | 0.00178 | 0.00227 | 0.00266 | 0.00302 | 0.00364
in n-propanol | 0.00105 | 0.00145 | 0.00176 | 0.00195 | 0.0026 | 0.00323 | 0.00386 | 0.00498 | 0.00612
in sec-butanol | 0.00103 | 0.00143 | 0.0017 | 0.00227 | 0.00245 | 0.00299 | 0.00406 | 0.00505 | 0.00619
in water | 0.000247 | 0.000288 | 0.000359 | 0.000452 | 0.000492 | 0.000617 | 0.00076 | 0.000834 | 0.00107
